Test results from US11299478B2, “2-cyanopyrimidin-4-yl carbamate or urea derivative or salt thereof, and pharmaceutical composition including same” (HANLIM PHARMACEUTICAL CO., LTD., priority 2018, dated 2022).

Key:
Format in all cases: biochemical
cathepsin B = cathepsin B (Homo sapiens, UniProt P07858); experiment: Inhibitory activity assay against cathepsin B (enzyme assay); details: Z-Arg-Arg-AMC 40 μM, enzyme 1 nM, pH 6.0, 90 minutes
Method: In order to measure the enzyme activity of cathepsin B, a buffer solution (pH 6.0) consisting of 50 mM MES, 5 mM DTT, 2.5 mM EDTA, 0.005% Polysorbate 20, and 10% DMSO was prepared. The substrate, the test material, and the enzyme were mixed in the buffer solution in a predetermined concentration. The Z-Arg-Arg-AMC substrate was used in the final concentration of 40 μM. The test material was used in the final concentrations of 10.0 μM, 3.33 μM, 1.11 μM, 0.370 μM, 0.123 μM, 0.0412 μM, 0.0137 μM, 0.00457 μM, 0.00152 μM, and 0.000508 μM, respectively. The cathepsin B enzyme was used in the final concentration of 1 nM. The final volume of the enzyme reaction solution was 10 μL. After reacting the mixture of substrate, test material, and enzyme for 90 minutes, the enzyme activity was measured with the EnVision (Perkin Elmer) microplate reader at an absorption wavelength of 340 nm and an emission wavelength of 460 nm. IC50 values were determined using 4-parameter logistic curve fit program of GraphPad Prism.

cathepsin K = biological target: T1, cathepsin K (Homo sapiens, UniProt P43235); experiment: Inhibitory activity assay against cathepsin K (enzyme assay); details: Z-Phe-Arg-AMC 10 μM, enzyme 1 nM, pH 5.5, 30 minutes
T1 sequence (P43235 115-329): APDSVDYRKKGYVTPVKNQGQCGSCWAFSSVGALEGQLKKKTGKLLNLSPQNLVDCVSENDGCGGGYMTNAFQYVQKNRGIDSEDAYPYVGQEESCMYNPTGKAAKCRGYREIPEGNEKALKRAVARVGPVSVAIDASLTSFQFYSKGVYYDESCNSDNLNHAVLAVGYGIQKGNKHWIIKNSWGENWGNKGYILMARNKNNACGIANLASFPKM
Method: In order to measure the enzyme activity of cathepsin K, a buffer solution (pH 5.5) consisting of 50 mM 2-(N-morpholino)ethanesulfonic acid (MES), 2 mM dithiothreitol (DTT), 2.5 mM ethylenediaminetetraacetic acid (EDTA), 0.01% Triton X-100, and 10% dimethyl sulfoxide (DMSO) was prepared. The substrate, the test material, and the enzyme were mixed in the buffer solution in a predetermined concentration. The Z-Phe-Arg-AMC substrate was used in the final concentration of 10 μM. The test material was used in the final concentrations of 10.0 μM, 3.33 μM, 1.11 μM, 0.370 μM, 0.123 μM, 0.0412 μM, 0.0137 μM, 0.00457 μM, 0.00152 μM, and 0.000508 μM, respectively. The cathepsin K enzyme was used in the final concentration of 1 nM. The final volume of the enzyme reaction solution was 10 μL. After reacting the mixture of substrate, test material, and enzyme for 30 minutes, the enzyme activity was measured with the Synergy Neo (Biotek) microplate reader at an absorption wavelength of 355 nm and an emission wavelength of 460 nm. IC50 values were determined using 4-parameter logistic curve fit program of GraphPad Prism.

cathepsin L = cathepsin L (Homo sapiens, UniProt P07711); experiment: Inhibitory activity assay against cathepsin L (enzyme assay); details: Z-Phe-Arg-AMC 2 μM, enzyme 3 nM, pH 5.5, 30 minutes
Method: In order to measure the enzyme activity of cathepsin L, a buffer solution (pH 5.5) consisting of 50 mM MES, 2.5 mM DTT, 2.5 mM EDTA, 0.005% Polysorbate 20, and 10% DMSO was prepared. The substrate, the test material, and the enzyme were mixed in the buffer solution in a predetermined concentration. The Z-Phe-Arg-AMC substrate was used in the final concentration of 2 μM. The test material was used in the final concentrations of 10.0 μM, 3.33 μM, 1.11 μM, 0.370 μM, 0.123 μM, 0.0412 μM, 0.0137 μM, 0.00457 μM, 0.00152 μM, and 0.000508 μM, respectively. The cathepsin L enzyme was used in the final concentration of 3 nM. The final volume of the enzyme reaction solution was 10 μL. After reacting the mixture of substrate, test material, and enzyme for 30 minutes, the enzyme activity was measured with the EnVision (Perkin Elmer) microplate reader at an absorption wavelength of 340 nm and an emission wavelength of 460 nm. IC50 values were determined using 4-parameter logistic curve fit program of GraphPad Prism.

cathepsin S = cathepsin S (Homo sapiens, UniProt P25774); experiment: Inhibitory activity assay against cathepsin S (enzyme assay); details: Z-Phe-Arg-AMC 70 μM, enzyme 3 nM, pH 6.5, 45 minutes
Method: In order to measure the enzyme activity of cathepsin S, a buffer solution (pH 6.5) consisting of 50 mM MES, 2.5 mM DTT, 1.0 mM EDTA, 0.001% bovine serum albumin (BSA), and 10% DMSO was prepared. The substrate, the test material, and the enzyme were mixed in the buffer solution in a predetermined concentration. The Z-Phe-Arg-AMC substrate was used in the final concentration of 70 μM. The test material was used in the final concentrations of 10.0 μM, 3.33 μM, 1.11 μM, 0.370 μM, 0.123 μM, 0.0412 μM, 0.0137 μM, 0.00457 μM, 0.00152 μM, and 0.000508 μM, respectively. The cathepsin S enzyme was used in the final concentration of 3 nM. The final volume of the enzyme reaction solution was 10 μL.
After reacting the mixture of substrate, test material, and enzyme for 45 minutes, the enzyme activity was measured with the EnVision (Perkin Elmer) microplate reader at an absorption wavelength of 340 nm and an emission wavelength of 460 nm. IC50 values were determined using 4-parameter logistic curve fit program of GraphPad Prism.

Chain of cathepsin L (P07711 114-333, species assumed): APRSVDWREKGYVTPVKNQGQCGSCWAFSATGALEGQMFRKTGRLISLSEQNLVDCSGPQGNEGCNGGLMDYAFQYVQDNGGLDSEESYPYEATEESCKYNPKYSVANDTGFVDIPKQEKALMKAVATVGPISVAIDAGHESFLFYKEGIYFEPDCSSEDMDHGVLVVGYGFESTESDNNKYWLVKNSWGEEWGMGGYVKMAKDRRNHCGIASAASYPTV
Chain of cathepsin S (P25774 115-331, species assumed): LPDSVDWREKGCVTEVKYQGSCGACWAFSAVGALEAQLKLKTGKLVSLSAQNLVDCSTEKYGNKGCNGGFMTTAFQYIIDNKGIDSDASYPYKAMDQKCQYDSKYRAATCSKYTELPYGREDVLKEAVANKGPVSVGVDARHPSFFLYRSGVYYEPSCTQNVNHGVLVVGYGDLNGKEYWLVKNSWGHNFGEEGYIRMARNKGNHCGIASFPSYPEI

Question: For `N#Cc1nccc(C2(NC(=O)Nc3cc(C(F)(F)F)ccc3C(F)(F)F)CCCCC2)n1` [Example 103, 1-(2,5-bis(trifluoromethyl)phenyl)-3-(1-(2-cyanopyrimidin-4-yl)cyclohexyl)urea], which IC50 (cathepsin B) is on record?
Answer: > 10000 nM

Question: And the IC50 (cathepsin K)?
Answer: 4.6 nM

Question: What about the IC50 (cathepsin L) of the same molecule?
Answer: > 10000 nM

Question: What about the IC50 (cathepsin S) of the same molecule?
Answer: > 10000 nM

Question: What does the source list for `N#Cc1nccc(C2(NC(=O)Nc3ccc(-c4ccc(C(=O)NCCc5c[nH]cn5)cc4)c(C(F)(F)F)c3)CCCCC2)n1` [Example 189, N-(2-(1H-imidazol-4-yl)ethyl)-4′-(3-(1-(2-cyanopyrimidin-4-yl)cyclohexyl)ureido)-2′-(trifluoromethyl)-[1,1′-biphenyl]-4-carboxamide]?
Answer: IC50 (cathepsin B): 5400 nM; IC50 (cathepsin K): 0.6 nM; IC50 (cathepsin L): 1190 nM; IC50 (cathepsin S): > 10000 nM

Question: How did the IC50 (cathepsin B) turn out when `Cc1ccc(C(F)(F)F)cc1NC(=O)NC1(c2ccnc(C#N)n2)CCCC1` [Example 66, 1-(1-(2-cyanopyrimidin-4-yl)cyclopentyl)-3-(2-methyl-5-(trifluoromethyl)phenyl)urea] was run?
Answer: > 10000 nM

Question: And the IC50 (cathepsin K)?
Answer: 3.4 nM

Question: And the IC50 (cathepsin L)?
Answer: > 10000 nM

Question: And the IC50 (cathepsin S)?
Answer: > 10000 nM

Question: How did the IC50 (cathepsin B) turn out when `N#Cc1nccc(C2(NC(=O)OCCc3ccccc3)CCCC2)n1` [Example 4, phenethyl (1-(2-cyanopyrimidin-4-yl)cyclopentyl)carbamate] was run?
Answer: > 10000 nM

Question: What about the IC50 (cathepsin K) of the same molecule?
Answer: 1150 nM

Question: What about the IC50 (cathepsin L) of the same molecule?
Answer: > 10000 nM

Question: What about the IC50 (cathepsin S) of the same molecule?
Answer: > 10000 nM

Question: Which results are given for `N#Cc1nccc(C2(NC(=O)Nc3cc(C(F)(F)F)ccc3F)CCCC2)n1` [Example 83, 1-(1-(2-cyanopyrimidin-4-yl)cyclopentyl)-3-(2-fluoro-5-(trifluoromethyl)phenyl)urea]?
Answer: IC50 (cathepsin B): > 10000 nM; IC50 (cathepsin K): 17 nM; IC50 (cathepsin L): > 10000 nM; IC50 (cathepsin S): > 10000 nM

Question: What does the source list for `N#Cc1nccc(C2(NC(=O)Nc3ccc(N4CCN(C5CC5)CC4)cc3)CCCCC2)n1` [Example 144, 1-(1-(2-cyanopyrimidin-4-yl)cyclohexyl)-3-(4-(4-cyclopropylpiperazin-1-yl)phenyl)urea]?
Answer: IC50 (cathepsin B): > 10000 nM; IC50 (cathepsin K): 18.3 nM; IC50 (cathepsin L): > 10000 nM; IC50 (cathepsin S): > 10000 nM

Question: `N#Cc1nccc(C2(NC(=O)Nc3ccc(-c4cccnc4)cc3)CCCCC2)n1` [Example 128, 1-(1-(2-cyanopyrimidin-4-yl)cyclohexyl)-3-(4-(pyridin-3-yl)phenyl)urea] was tested. Which IC50 (cathepsin B) did it give?
Answer: > 10000 nM

Question: And the IC50 (cathepsin K)?
Answer: 13.6 nM

Question: What about the IC50 (cathepsin L) of the same molecule?
Answer: > 10000 nM

Question: What about the IC50 (cathepsin S) of the same molecule?
Answer: 9060 nM

Question: How did the IC50 (cathepsin B) turn out when `N#Cc1nccc(C2(NC(=O)Nc3cc(C(F)(F)F)ccc3C(=O)O)CCCCC2)n1` [Example 98, 2-(3-(1-(2-cyanopyrimidin-4-yl)cyclohexyl)ureido)-4-(trifluoromethyl)benzoic acid] was run?
Answer: > 10000 nM

Question: What about the IC50 (cathepsin K) of the same molecule?
Answer: 61.7 nM

Question: And the IC50 (cathepsin L)?
Answer: > 10000 nM

Question: What about the IC50 (cathepsin S) of the same molecule?
Answer: 4480 nM

Question: `N#Cc1nccc(C2(NC(=O)Nc3ccc4ccccc4c3)CCCC2)n1` [Example 75, 1-(1-(2-cyanopyrimidin-4-yl)cyclopentyl)-3-(naphthalen-2-yl)urea] was tested. Which IC50 (cathepsin B) did it give?
Answer: > 10000 nM

Question: And the IC50 (cathepsin K)?
Answer: 41 nM

Question: What about the IC50 (cathepsin L) of the same molecule?
Answer: > 10000 nM

Question: What about the IC50 (cathepsin S) of the same molecule?
Answer: > 10000 nM

Question: For `COc1cccc(CNC(=O)NC2(c3ccnc(C#N)n3)CCCC2)c1` [Example 69, 1-(1-(2-cyanopyrimidin-4-yl)cyclopentyl)-3-(3-methoxybenzyl)urea], which IC50 (cathepsin K) is on record?
Answer: 552 nM

Question: `Cc1ccc(NC(=O)NC2(c3ccnc(C#N)n3)CCCC2)cc1` [Example 39, 1-(1-(2-cyanopyrimidin-4-yl)cyclopentyl)-3-(para-tolyl)urea] was tested. Which IC50 (cathepsin K) did it give?
Answer: 108 nM

Question: `N#Cc1nccc(C2(NC(=O)OCc3ccccc3)CCCC2)n1` [Example 1, Benzyl (1-(2-cyanopyrimidin-4-yl)cyclopentyl)carbamate] was tested. Which IC50 (cathepsin K) did it give?
Answer: 23 nM

Question: With `COC(=O)CCC#Cc1ccc(-c2ccc(NC(=O)NC3(c4ccnc(C#N)n4)CCCCC3)cc2)cc1` [Example 175, methyl 5-(4′-(3-(1-(2-cyanopyrimidin-4-yl)cyclohexyl)ureido)-[1,1′-biphenyl]-4-yl)pent-4-ynoate] as the molecule, how does the IC50 (cathepsin K) read?
Answer: 136 nM

Question: How did the IC50 (cathepsin K) turn out when `CC(C)C1CCN(c2ccc(NC(=O)NC3(c4ccnc(C#N)n4)CCCCC3)cc2)CC1` [Example 145, 1-(1-(2-cyanopyrimidin-4-yl)cyclohexyl)-3-(4-(4-isopropylpiperidin-1-yl)phenyl)urea] was run?
Answer: 76 nM

Question: For `N#Cc1nccc(C2(NC(=O)NCc3ccoc3)CCCC2)n1` [Example 53, 1-(1-(2-cyanopyrimidin-4-yl)cyclopentyl)-3-(furan-3-ylmethyl)urea], which IC50 (cathepsin K) is on record?
Answer: 320 nM

Question: Which IC50 (cathepsin K) does the source give for `N#Cc1nccc(C2(NC(=O)OCc3cccc(Cl)c3)CCCC2)n1` [Example 8, 3-chlorobenzyl (1-(2-cyanopyrimidin-4-yl)cyclopentyl)carbamate] here?
Answer: 285 nM

Question: With `COc1ccccc1NC(=O)NC1(c2ccnc(C#N)n2)CCCC1` [Example 79, 1-(1-(2-cyanopyrimidin-4-yl)cyclopentyl)-3-(2-methoxyphenyl)urea] as the molecule, how does the IC50 (cathepsin K) read?
Answer: 3080 nM

Question: `N#Cc1nccc(C2(NC(=O)Nc3ccc(C(F)(F)F)cc3)CCCC2)n1` [Example 61, 1-(1-(2-cyanopyrimidin-4-yl)cyclopentyl)-3-(4-(trifluoromethyl)phenyl)urea] was tested. Which IC50 (cathepsin K) did it give?
Answer: 292 nM

Question: How did the IC50 (cathepsin K) turn out when `COc1ccc(CNC(=O)NC2(c3ccnc(C#N)n3)CCCC2)cc1` [Example 70, 1-(1-(2-cyanopyrimidin-4-yl)cyclopentyl)-3-(4-methoxybenzyl)urea] was run?
Answer: 270 nM

Question: `N#Cc1nccc(C2(NC(=O)Nc3ccc(N4CCNCC4)cc3)CCCC2)n1` [Example 52, 1-(1-(2-cyanopyrimidin-4-yl)cyclopentyl)-3-(4-(piperazin-1-yl)phenyl)urea] was tested. Which IC50 (cathepsin K) did it give?
Answer: 608 nM

Question: Which IC50 (cathepsin K) does the source give for `N#Cc1nccc(C2(NC(=O)NCc3cccc(C(F)(F)F)c3)CCCC2)n1` [Example 57, 1-(1-(2-cyanopyrimidin-4-yl)cyclopentyl)-3-(3-(trifluoromethyl)benzyl)urea] here?
Answer: 517 nM

Question: `N#Cc1nccc(C2(NC(=O)Nc3cccc(-c4ccc(C(F)(F)F)cc4)c3)CCCCC2)n1` [Example 112, 1-(1-(2-cyanopyrimidin-4-yl)cyclohexyl)-3-(4′-(trifluoromethyl)-[1,1′-biphenyl]-3-yl)urea] was tested. Which IC50 (cathepsin K) did it give?
Answer: 147 nM

Question: Which IC50 (cathepsin K) does the source give for `N#Cc1nccc(C2(NC(=O)Nc3ccc(C(=O)O)cc3)CCCCC2)n1` [Example 135, 4-(3-(1-(2-cyanopyrimidin-4-yl)cyclohexyl)ureido)benzoic acid] here?
Answer: 111 nM

Question: Which IC50 (cathepsin K) does the source give for `N#Cc1nccc(C2(NC(=O)Nc3ccccc3O)CCCC2)n1` [Example 73, 1-(1-(2-cyanopyrimidin-4-yl)cyclopentyl)-3-(2-hydroxyphenyl)urea] here?
Answer: 315 nM
